Experimental data from PubChem BioAssay (NCI).
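96-well plates; 48 h exposure; 5 concentrations. Endpoints by linear interpolation between flanking doses. Not reached: highest tested concentration assigned. The concentration for 50% growth inhibition is given as GI50. TGI: concentration producing complete growth inhibition.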

Tests used:
Test in all cases: DTP human tumour cell line panel, 48 h
[1] = system: 786-0 renal
[2] = system: A498 renal
[3] = system: A549 NSCLC
[4] = system: ACHN renal
[5] = system: BT-549 breast
[6] = system: DU-145 prostate
[7] = system: EKVX NSCLC
[8] = system: HCC-2998 colon
[9] = system: HCT-116 colon
[10] = system: HCT-15 colon
[11] = system: HL-60(TB) leukemia
[12] = system: HOP-62 NSCLC
[13] = system: HOP-92 NSCLC
[14] = system: HS 578T breast
[15] = system: HT29 colon
[16] = system: IGROV1 ovarian
[17] = system: K-562 leukemia
[18] = system: KM12 colon
[19] = system: LOX IMVI melanoma
[20] = system: M14 melanoma
[21] = system: MALME-3M melanoma
[22] = system: MCF7 breast
[23] = system: MDA-MB-231 breast
[24] = system: MDA-MB-435
[25] = system: MOLT-4 leukemia
[26] = system: NCI-H226 lung
[27] = system: NCI-H23 lung
[28] = system: NCI-H460 lung
[29] = system: NCI-H522 lung
[30] = system: NCI/ADR-RES ovarian
[31] = system: OVCAR-3 ovarian
[32] = system: OVCAR-4 ovarian
[33] = system: OVCAR-5 ovarian
[34] = system: OVCAR-8 ovarian
[35] = system: PC-3 prostate
[36] = system: RPMI-8226 leukemia
[37] = system: RXF 393 renal
[38] = system: SF-268 CNS
[39] = system: SF-295 CNS
[40] = system: SF-539 CNS
[41] = system: SK-MEL-2 melanoma
[42] = system: SK-MEL-28 melanoma
[43] = system: SK-MEL-5 melanoma
[44] = system: SK-OV-3 ovarian
[45] = system: SN12C renal
[46] = system: SNB-19 CNS
[47] = system: SNB-75 CNS
[48] = system: SR leukemia
[49] = system: SW-620 colon
[50] = system: T-47D breast
[51] = system: TK-10 renal
[52] = system: U251 CNS
[53] = system: UACC-257 melanoma
[54] = system: UACC-62 melanoma
[55] = system: UO-31 renal

## CSc1ccc(SC2c3ccc(C)cc3Oc3nc(N)c(C#N)c(N)c32)cc1 (stereo not given)
[1]
  GI50: 1680 nM
  TGI: 3070 nM
[2]
  GI50: 2050 nM
  TGI: 3950 nM
[3]
  GI50: 1820 nM
  TGI: 3680 nM
[4]
  GI50: 1610 nM
  TGI: 2960 nM
[5]
  GI50: 1530 nM
  TGI: 2870 nM
[6]
  GI50: 1850 nM
  TGI: 3260 nM
[7]
  GI50: 1600 nM
  TGI: 2990 nM
[8]
  GI50: 1780 nM
  TGI: 3280 nM
[9]
  GI50: 1920 nM
  TGI: 3650 nM
[10]
  GI50: 1650 nM
  TGI: 3180 nM
[11]
  GI50: 2120 nM
  TGI: 4420 nM
[12]
  GI50: 1730 nM
  TGI: 3220 nM
[13]
  GI50: 1900 nM
  TGI: 3760 nM
[14]
  GI50: 2190 nM
  TGI: 5530 nM
[15]
  GI50: 2110 nM
  TGI: 4370 nM
[16]
  GI50: 1280 nM
  TGI: 3050 nM
[17]
  GI50: 2960 nM
  TGI: 9910 nM
[18]
  GI50: 1960 nM
  TGI: 3650 nM
[19]
  GI50: 1510 nM
  TGI: 2920 nM
[20]
  GI50: 1860 nM
  TGI: 3640 nM
[21]
  GI50: 1540 nM
  TGI: 3010 nM
[22]
  GI50: 1840 nM
  TGI: 4340 nM
[23]
  GI50: 1600 nM
  TGI: 3000 nM
[24]
  GI50: 1770 nM
  TGI: 3270 nM
[25]
  GI50: 2390 nM
  TGI: 6050 nM
[26]
  GI50: 1810 nM
  TGI: 3270 nM
[27]
  GI50: 1690 nM
  TGI: 3220 nM
[28]
  GI50: 2030 nM
  TGI: 4070 nM
[29]
  GI50: 1700 nM
  TGI: 3130 nM
[30]
  GI50: 2220 nM
  TGI: 5460 nM
[31]
  GI50: 1740 nM
  TGI: 3130 nM
[32]
  GI50: 1590 nM
  TGI: 3010 nM
[33]
  GI50: 1710 nM
  TGI: 3240 nM
[34]
  GI50: 1790 nM
  TGI: 3180 nM
[35]
  GI50: 1640 nM
  TGI: 3220 nM
[36]
  GI50: 2430 nM
  TGI: 6960 nM
[37]
  GI50: 1710 nM
  TGI: 3120 nM
[38]
  GI50: 1700 nM
  TGI: 3330 nM
[39]
  GI50: 1580 nM
  TGI: 2970 nM
[40]
  GI50: 1560 nM
  TGI: 2980 nM
[41]
  GI50: 2110 nM
  TGI: 4120 nM
[42]
  GI50: 1830 nM
  TGI: 3290 nM
[43]
  GI50: 1760 nM
  TGI: 3150 nM
[44]
  GI50: 1830 nM
  TGI: 3290 nM
[45]
  GI50: 1590 nM
  TGI: 2940 nM
[46]
  GI50: 1770 nM
  TGI: 3160 nM
[47]
  GI50: 2200 nM
  TGI: 7340 nM
[48]
  GI50: 2540 nM
  TGI: 7650 nM
[49]
  GI50: 2030 nM
  TGI: 4280 nM
[50]
  GI50: 1900 nM
  TGI: 4840 nM
[51]
  GI50: 1960 nM
  TGI: 3370 nM
[52]
  GI50: 1690 nM
  TGI: 3050 nM
[53]
  GI50: 1810 nM
  TGI: 3240 nM
[54]
  GI50: 1610 nM
  TGI: 2970 nM
[55]
  GI50: 1200 nM
  TGI: 2430 nM
